# Test results reported in patent publication US12605451B2, “Targeted plasma protein degradation” (Novartis AG, priority 2020, dated 2026).
# Where two headings read alike, the source gives them in different places. Positions of bridges follow the written chain, without caps; N, C: chain ends. Non-standard residues stand in square brackets, D forms with d. Residues, ends and D or L forms follow the SMILES beside them. *: point of attachment. X6 = O=C(CCCO[C@@H]1OC(CO[C@H]2OC(CO[C@H]3OC(CO)[C@@H](O)C(O)C3C[C@H]3OC(COP(=O)(O)O)[C@@H](O)C(O)C3O)[C@@H](O)C(O)C2O)[C@@H](O)C(O[C@H]2OC(CO)[C@@H](O)C(O)C2O[C@H]2OC(COP(=O)(O)O)[C@@H](O)C(O)C2O)C1O)NNC(=O)CO/N=C/c1ccc(C(=O)*)cc1; X7 = O=C(OC[C@@H]1[C@@H]2CCc3c(nnn3CCCCCCO[C@H](O[C@@H](/C=N/OCCO[C@H]3O[C@H](CCP(=O)(O)O)[C@@H](O)[C@H](O)[C@@H]3O)CO)[C@H](O)/C=N\OCCO[C@H]3O[C@H](CCP(=O)(O)O)[C@@H](O)[C@H](O)[C@@H]3O)CC[C@@H]21)*; X2 = CC(=O)N[C@H]1[C@H]2OC[C@](COCCOCCOCCOCCn3cc(COCC(COCc4cn(CCOCCOCCOCCOC[C@@]56CO[C@@H](O5)[C@H](NC(C)=O)[C@@H](O)[C@H]6O)nn4)NC(=O)CCOCCOCCOCCOCCC(=O)*)nn3)(O2)[C@H](O)[C@@H]1O; Bip = N[C@@H](Cc1ccc(-c2ccccc2)cc1)C(=O)O; NMeA = CN[C@@H](C)C(=O)O
# Tests used:
# M6PR = M6PR (Homo sapiens, UniProt P11717); assay: SPR binding to M6P receptor
# M6PR, sequence (P11717 whole entry): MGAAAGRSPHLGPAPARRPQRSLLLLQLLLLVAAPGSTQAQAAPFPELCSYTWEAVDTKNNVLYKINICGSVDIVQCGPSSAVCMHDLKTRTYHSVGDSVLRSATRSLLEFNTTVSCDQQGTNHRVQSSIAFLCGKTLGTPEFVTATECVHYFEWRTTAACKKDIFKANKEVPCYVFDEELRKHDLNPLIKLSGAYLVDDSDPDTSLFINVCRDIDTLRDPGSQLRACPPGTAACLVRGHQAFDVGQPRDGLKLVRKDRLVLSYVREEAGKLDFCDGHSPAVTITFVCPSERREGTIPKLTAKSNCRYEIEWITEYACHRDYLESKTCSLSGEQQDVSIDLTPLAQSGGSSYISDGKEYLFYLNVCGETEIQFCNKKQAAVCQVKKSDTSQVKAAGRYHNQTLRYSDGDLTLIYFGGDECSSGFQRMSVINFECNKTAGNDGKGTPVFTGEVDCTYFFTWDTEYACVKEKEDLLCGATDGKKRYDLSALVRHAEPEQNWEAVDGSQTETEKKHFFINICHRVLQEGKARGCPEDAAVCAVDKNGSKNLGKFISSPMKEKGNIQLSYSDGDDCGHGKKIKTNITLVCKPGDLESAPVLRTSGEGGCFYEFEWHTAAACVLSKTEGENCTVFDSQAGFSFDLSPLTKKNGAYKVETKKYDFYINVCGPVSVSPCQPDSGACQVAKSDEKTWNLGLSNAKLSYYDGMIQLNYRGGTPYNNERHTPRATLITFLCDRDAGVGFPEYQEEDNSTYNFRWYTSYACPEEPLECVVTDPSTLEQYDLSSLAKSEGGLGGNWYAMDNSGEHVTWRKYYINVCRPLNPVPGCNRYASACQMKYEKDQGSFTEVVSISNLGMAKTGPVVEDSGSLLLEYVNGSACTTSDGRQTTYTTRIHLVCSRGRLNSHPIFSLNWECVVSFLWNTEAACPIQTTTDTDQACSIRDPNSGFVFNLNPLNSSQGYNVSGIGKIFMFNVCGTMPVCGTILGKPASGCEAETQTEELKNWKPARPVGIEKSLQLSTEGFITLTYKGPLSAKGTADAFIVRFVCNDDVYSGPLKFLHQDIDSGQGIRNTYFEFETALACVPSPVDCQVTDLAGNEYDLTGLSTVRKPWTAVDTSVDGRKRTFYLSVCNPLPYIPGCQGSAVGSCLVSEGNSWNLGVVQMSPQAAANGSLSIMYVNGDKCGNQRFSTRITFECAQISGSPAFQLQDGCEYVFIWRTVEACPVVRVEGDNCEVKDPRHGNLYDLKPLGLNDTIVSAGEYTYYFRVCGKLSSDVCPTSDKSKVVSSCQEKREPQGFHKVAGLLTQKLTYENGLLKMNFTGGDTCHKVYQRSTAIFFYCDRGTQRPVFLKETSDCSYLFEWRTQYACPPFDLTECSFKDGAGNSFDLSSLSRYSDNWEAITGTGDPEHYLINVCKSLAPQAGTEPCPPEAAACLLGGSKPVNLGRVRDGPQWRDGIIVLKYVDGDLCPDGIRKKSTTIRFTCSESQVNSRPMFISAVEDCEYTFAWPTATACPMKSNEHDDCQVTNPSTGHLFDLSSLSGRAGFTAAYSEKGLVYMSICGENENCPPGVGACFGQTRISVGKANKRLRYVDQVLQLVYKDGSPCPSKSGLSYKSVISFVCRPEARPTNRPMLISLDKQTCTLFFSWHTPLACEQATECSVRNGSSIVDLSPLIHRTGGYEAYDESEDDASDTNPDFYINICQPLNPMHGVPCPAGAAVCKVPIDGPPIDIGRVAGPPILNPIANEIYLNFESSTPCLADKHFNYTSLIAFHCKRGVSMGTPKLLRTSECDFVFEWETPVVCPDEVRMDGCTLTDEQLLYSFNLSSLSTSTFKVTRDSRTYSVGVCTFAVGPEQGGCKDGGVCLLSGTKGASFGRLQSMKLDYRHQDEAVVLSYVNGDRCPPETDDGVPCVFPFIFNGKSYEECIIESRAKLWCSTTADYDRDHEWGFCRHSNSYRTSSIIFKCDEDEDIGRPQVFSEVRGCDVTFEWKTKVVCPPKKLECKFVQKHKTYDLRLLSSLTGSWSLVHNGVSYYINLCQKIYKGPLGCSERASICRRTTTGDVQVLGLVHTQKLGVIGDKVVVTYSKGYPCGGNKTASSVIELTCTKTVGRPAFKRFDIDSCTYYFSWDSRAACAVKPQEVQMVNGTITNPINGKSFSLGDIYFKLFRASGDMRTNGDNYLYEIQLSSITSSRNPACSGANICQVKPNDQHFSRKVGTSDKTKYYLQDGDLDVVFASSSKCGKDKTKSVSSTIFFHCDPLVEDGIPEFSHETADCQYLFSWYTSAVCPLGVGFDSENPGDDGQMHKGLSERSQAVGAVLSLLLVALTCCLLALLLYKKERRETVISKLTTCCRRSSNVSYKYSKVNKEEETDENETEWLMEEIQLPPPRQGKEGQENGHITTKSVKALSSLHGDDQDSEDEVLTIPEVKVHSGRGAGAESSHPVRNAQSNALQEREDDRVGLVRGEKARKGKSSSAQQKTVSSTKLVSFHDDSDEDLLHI
# Source text: SPR was used to obtain the binding data for M6P receptor ligands compounds (int-CC6), either alone or as part of the bifunctional compound (BFC-2).
# human PCSK9 = target: T1, human PCSK9 (Homo sapiens, UniProt Q8NBP7); assay: SPR binding to biotinylated human PCSK9 (Proteon XPR36); conditions: Bifunctional Compound; SPR; read-out: PCSK9 KD
# T1 construct: Purified recombinant full length human PCSK9 with C-terminal biotinylated Avitag
# T1 sequence (Q8NBP7 153-692): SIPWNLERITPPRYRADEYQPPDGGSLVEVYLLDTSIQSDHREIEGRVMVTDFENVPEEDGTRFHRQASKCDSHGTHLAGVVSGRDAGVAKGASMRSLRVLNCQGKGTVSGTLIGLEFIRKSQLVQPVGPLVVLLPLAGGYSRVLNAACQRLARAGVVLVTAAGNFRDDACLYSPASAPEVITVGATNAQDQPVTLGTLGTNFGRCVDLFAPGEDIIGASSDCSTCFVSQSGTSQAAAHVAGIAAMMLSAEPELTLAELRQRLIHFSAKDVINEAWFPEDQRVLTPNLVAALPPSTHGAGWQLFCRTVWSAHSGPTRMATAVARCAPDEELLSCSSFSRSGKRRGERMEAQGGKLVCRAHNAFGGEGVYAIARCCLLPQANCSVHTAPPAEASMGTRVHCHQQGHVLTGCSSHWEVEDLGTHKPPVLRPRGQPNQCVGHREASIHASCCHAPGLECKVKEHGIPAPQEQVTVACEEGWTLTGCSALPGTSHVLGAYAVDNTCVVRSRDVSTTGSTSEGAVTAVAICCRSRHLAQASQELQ
# Procedure: SPR was used to obtain the binding data for PCSK9 receptor ligand compound (C5), either alone or as part of the bifunctional compounds (BFC1), respectively.
# SPR Binding experiments were performed on a Proteon XPR36 instrument (Bio-Rad Laboratories). Purified recombinant full length human PCSK9 with C-terminal biotinylated Avitag was used for the assay. Biotinylated human PCSK9 was incubated with fivefold molar excess of bifunctional compound (BFC1) or compound (C5), and immobilized onto a Neutravidin coated sensor chip. (NLC chip, Bio-Rad Laboratories, Inc). After conditioning the chip by injecting running buffer (20 mM Tris pH7.5, 300 mM NaCl, 25 mM CaCl2, 2 mM betamercaptoethanol, 2% DMSO and 0.05% Tween-20) at a flow rate of 0.1 mL/min for 240 s, PCSK9 protein was injected at a protein concentration of 0.02 mg/ml in running buffer with fivefold molar excess of bifunctional compound and a flow rate of 0.03 mL/min followed by 4 washes with running buffer with 1 μM of bifunctional compound (0.1 mL/min for 60 seconds each).
# (§1) To perform sandwich SPR binding assays, His-ASGPR1 (62-291) protein stocks were diluted with running buffer to a desired concentration. ASGPR was injected at a flow rate of 0.1 mL/min for 240 s and allowed to dissociate for 1200 s. Sensorgrams were recorded for association and dissociation phases. All sensorgrams were processed by subtracting the binding response recorded from a blank control surfaces (or interspot surfaces), followed by subtracting buffer blank injections from the reaction surface. Data were processed with the ProteOn Manager software (version 3.1.0.6, Bio-Rad, Inc.).
# human ASGPR1 = target: T2, human ASGPR1 (Homo sapiens, UniProt P07306); assay: ASGPR1 SPR direct binding (Biacore, SA chip)
# T2 construct: Recombinant extracellular domain of human ASGPR1 with N-terminal biotinylated Avitag
# T2 sequence (P07306 62-291 limits assumed): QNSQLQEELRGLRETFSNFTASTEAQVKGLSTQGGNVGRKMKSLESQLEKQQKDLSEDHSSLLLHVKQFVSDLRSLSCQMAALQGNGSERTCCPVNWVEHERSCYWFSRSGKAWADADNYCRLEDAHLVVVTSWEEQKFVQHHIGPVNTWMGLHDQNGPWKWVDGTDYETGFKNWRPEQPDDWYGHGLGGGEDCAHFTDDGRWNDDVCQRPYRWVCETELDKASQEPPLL
# Procedure: SPR was used to obtain the binding data for ASGP receptor ligand compound (int-CC2), either alone or as part of the bifunctional compounds (BFC-13), (BFC-15) and (BFC16).
# (§2) ASGPR1 SPR experiments were performed on either Biacore T200 or Biacore 8K. The assay was optimized for Biacore (Streptavidin) SA chip in running buffer consisting of 20 mM HEPES, 300 mM NaCl, 2 mM CaCl2, 0.01% tween-20, 2% DMSO, pH 7.4. Recombinant extracellular domain of human ASGPR1 with N-terminal biotinylated Avitag was diluted to 20 μg/mL in running buffer, and immobilized onto SA chip after it was preconditioned with at least four 60-second injections at 30 uL/min of 1 M NaCl/40 mM NaOH solution. Protein immobilization level varied from 500 RU to 3500 RU dependent on analytes' molecular weight, for targeted Rmax of 30 RUs. Direct binding of analytes to ASGPR1 was observed when a dose response titration of analytes in 2% DMSO was flown over the immobilized protein. Data analysis was done on either Biacore T200 Evaluation Software or Biacore Insight Evaluation Software.
# SPR was used to obtain the binding data for ASGP receptor ligand compounds (int-CC2), either alone or as part of the bifunctional compounds (BFC1).
# as §2, with “Biacore” for “Biacore (Streptavidin)”
# FHR3 = target: T3, FHR3 (Homo sapiens, UniProt Q02985); assay: SPR binding to biotinylated FHR3 (Proteon XPR36); conditions: Bifunctional Compound
# T3 construct: Purified FHR3 with C-terminal biotinylated Avitag was used for the assay
# T3 sequence (Q02985 19-330): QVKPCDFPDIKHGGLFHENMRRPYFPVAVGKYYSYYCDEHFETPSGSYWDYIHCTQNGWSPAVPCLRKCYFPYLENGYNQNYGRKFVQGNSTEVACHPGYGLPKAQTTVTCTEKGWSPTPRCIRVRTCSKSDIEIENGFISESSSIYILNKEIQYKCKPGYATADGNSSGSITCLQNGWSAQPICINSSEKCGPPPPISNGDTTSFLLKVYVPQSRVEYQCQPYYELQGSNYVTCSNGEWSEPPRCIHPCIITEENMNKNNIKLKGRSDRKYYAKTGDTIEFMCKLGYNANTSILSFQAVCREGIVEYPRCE
# Procedure: SPR was used to obtain the binding data for FHR3 receptor ligands compounds (C12), (C13), (C14), (C15) and (C16), either alone or as part of the bifunctional compounds (BFC13), (BFC14), (BFC15), (BFC16) and (BFC17), respectively.
# SPR Binding experiments were performed on a Proteon XPR36 instrument (Bio-Rad Laboratories). Purified FHR3 with C-terminal biotinylated Avitag was used for the assay. Biotinylated FHR3 was incubated with fivefold molar excess of bifunctional compounds (BFC13), (BFC14), (BFC15), (BFC16) or (BFC17), or compounds (C12), (C13), (C14), (C15) or (C16), and immobilized onto a Neutravidin coated sensor chip. (NLC chip, Bio-Rad Laboratories, Inc). […]
# as §1, with “ASGPR was injected at a flow rate of 0.1 mL/min for 240 s and allowed to dissociate for 1200 s.” left out, “Data were processed with the ProteOn Manager software (version 3.1.0.6, Bio-Rad, Inc.).” left out
# [1] = Bifunctional Compound (PCSK9 series), Table 9, read-out: ASGPR binding KD
Kd (human PCSK9) [nM],Kd (human ASGPR1; [1]) [nM],SMILES,Kd (M6PR) [nM],also measured
–,–,CC(C)[C@@H]1NC(=O)[C@H](Cc2ccccc2)NC(=O)CSC[C@@H](C(=O)NCC(=O)N[C@@H](CCCCNC(=O)c2ccc(/C=N/OCC(=O)NNC(=O)CCCO[C@@H]3OC(CO[C@H]4OC(CO[C@H]5OC(CO)[C@@H](O)C(O)C5C[C@H]5OC(COP(=O)(O)O)[C@@H](O)C(O)C5O)[C@@H](O)C(O)C4O)[C@@H](O)C(O[C@H]4OC(CO)[C@@H](O)C(O)C4O[C@H]4OC(COP(=O)(O)O)[C@@H](O)C(O)C4O)C3O)cc2)C(N)=O)NC(=O)[C@@H]2CCCN2C(=O)[C@H](C)NC(=O)[C@H](CCC(=O)O)NC(=O)[C@H](C)N(C)C(=O)[C@H](Cc2ccc(-c3ccccc3)cc2)NC(=O)[C@H](C)N(C)C(=O)[C@H](Cc2ccc(-c3ccccc3)cc2)NC(=O)[C@H]([C@@H](C)O)NC(=O)[C@H]([C@@H](C)O)NC(=O)[C@@H]2CCCN2C1=O (stereo partly drawn) [BFC-2] ({CH2CO}-FVPTT[Bip][NMeA][Bip][NMeA]EAPCGK(X6)-NH2; thioether N-13),7.19,–
–,–,CC(C)[C@@H]1NC(=O)[C@H](Cc2ccccc2)NC(=O)CSC[C@@H](C(=O)NCC(=O)N[C@@H](CCCCNC(=O)OC[C@@H]2[C@@H]3CCc4c(nnn4CCCCCCO[C@H](O[C@@H](/C=N/OCCO[C@H]4O[C@H](CCP(=O)(O)O)[C@@H](O)[C@H](O)[C@@H]4O)CO)[C@H](O)/C=N\OCCO[C@H]4O[C@H](CCP(=O)(O)O)[C@@H](O)[C@H](O)[C@@H]4O)CC[C@@H]32)C(N)=O)NC(=O)[C@@H]2CCCN2C(=O)[C@H](C)NC(=O)[C@H](CCC(=O)O)NC(=O)[C@H](C)N(C)C(=O)[C@H](Cc2ccc(-c3ccccc3)cc2)NC(=O)[C@H](C)N(C)C(=O)[C@H](Cc2ccc(-c3ccccc3)cc2)NC(=O)[C@H]([C@@H](C)O)NC(=O)[C@H]([C@@H](C)O)NC(=O)[C@@H]2CCCN2C1=O [BFC-4] ({CH2CO}-FVPTT[Bip][NMeA][Bip][NMeA]EAPCGK(X7)-NH2; thioether N-13),110,–
3.5,7,CC(=O)N[C@H]1[C@H]2OC[C@](COCCOCCOCCOCCn3cc(COCC(COCc4cn(CCOCCOCCOCCOC[C@@]56CO[C@@H](O5)[C@H](NC(C)=O)[C@@H](O)[C@H]6O)nn4)NC(=O)CCOCCOCCOCCOCCC(=O)NCCCC[C@H](NC(=O)CNC(=O)[C@@H]4CSCC(=O)N[C@@H](Cc5ccccc5)C(=O)N[C@@H](C(C)C)C(=O)N5CCC[C@H]5C(=O)N[C@@H]([C@@H](C)O)C(=O)N[C@@H]([C@@H](C)O)C(=O)N[C@@H](Cc5ccc(-c6ccccc6)cc5)C(=O)N(C)[C@@H](C)C(=O)N[C@@H](Cc5ccc(-c6ccccc6)cc5)C(=O)N(C)[C@@H](C)C(=O)N[C@@H](CCC(=O)O)C(=O)N[C@@H](C)C(=O)N5CCC[C@H]5C(=O)N4)C(N)=O)nn3)(O2)[C@H](O)[C@@H]1O (stereo partly drawn) [BFC-7] ({CH2CO}-FVPTT[Bip][NMeA][Bip][NMeA]EAPCGK(X2)-NH2; thioether N-13),–,–
2.3,100,COC[C@H]1NC(=O)[C@@H](CCCNC(=O)CCCCCCC(=O)NC(COCCC(=O)NCCCNC(=O)CCCCO[C@H]2O[C@@H](CO)[C@@H](O)[C@@H](O)[C@@H]2NC(C)=O)(COCCC(=O)NCCCNC(=O)CCCCO[C@H]2O[C@@H](CO)[C@@H](O)[C@@H](O)[C@@H]2NC(C)=O)COCCC(=O)NCCCNC(=O)CCCCO[C@H]2O[C@@H](CO)[C@@H](O)[C@@H](O)[C@@H]2NC(C)=O)N(Cc2ccc(Cl)cc2Oc2ccc(-c3cnc(CN(C)C)n3C)cc2)C(=O)C[C@H](Cc2ccccc2)C(=O)N(C)[C@@H]2CCCC[C@H]2NC(=O)C[C@@H](Cc2ccc(Cl)cc2)N(C)C1=O [BFC-10],–,–
–,–,CC(=O)N[C@H]1[C@H](OCCCCC(=O)NCCCNC(=O)CCOCC(COCCC(=O)NCCCNC(=O)CCCCO[C@@H]2O[C@H](CO)[C@H](O)[C@H](O)[C@H]2NC(C)=O)(COCCC(=O)NCCCNC(=O)CCCCO[C@@H]2O[C@H](CO)[C@H](O)[C@H](O)[C@H]2NC(C)=O)NC(=O)CCOCCOCCOCCOCCOCCOCCOCCOCCOCCC(=O)NCCCC[C@@H]2NC(=O)[C@H](Cc3ccc(O)cc3)NC(=O)[C@H](CC(N)=O)NC(=O)[C@H](C(C)C)NC(=O)[C@H](CO)NC(=O)[C@H](Cc3ccccc3)N(C)C(=O)[C@H](CCCNC(=N)N)NC(=O)[C@H](Cc3ccccc3)NC(=O)CSC[C@@H](C(=O)NCC(N)=O)NC(=O)[C@H](Cc3ccccc3)N(C)C(=O)[C@H](CC(N)=O)NC(=O)[C@@H]3Cc4ccccc4CN3C(=O)[C@H](CC(=O)O)NC(=O)[C@H](CCCNC(=N)N)NC2=O)O[C@H](CO)[C@H](O)[C@@H]1O [BFC-15],–,"Kd (FHR3): 301 nM; Kd (human ASGPR1; Bifunctional Compound (FHR3 series), Table 7, read-out: ASGRR KD): 0.45 nM"
–,–,NOCC(=O)NNC(=O)CCCO[C@@H]1OC(CO[C@H]2OC(CO[C@H]3OC(CO)[C@@H](O)[C@H](O)C3O[C@H]3OC(COP(=O)(O)O)[C@@H](O)C(O)[C@H]3O)[C@@H](O)[C@H](O)C2O)[C@@H](O)[C@H](O[C@H]2OC(CO)[C@@H](O)C(O)[C@H]2O[C@H]2OC(COP(=O)(O)O)[C@@H](O)C(O)[C@H]2O)C1O (stereo partly drawn) [int-CC6],–,"Kd (M6PR; Free Ligand, SPR, read-out: M6PR binding KD): 0.327 nM"
